The values that follow come from patent US20240299300A1, “LIPOSOME VITAMIN C PREPARATION” (priority 2023, published 2024).

The series concerns H9 cells, a human T-cell line. The experiment in a line: Vitamin C uptake in H9 T-cells. The format is cell-based. The following applies: 50 μM. As to the method: At the times indicated in FIG. 13, cells were harvested and measured for vitamin C and protein content. The cellular vitamin C levels of the cells were measured.

Turning to `O=C1O[C@H]([C@@H](O)CO)C(O)=C1O` [nonliposomal vitamin C, ascorbic acid], where the note is “approximately two hours”, the “cellular vitamin C level (peak)” value is 20 nmol/mg protein. Also, where the note is “fifteen minutes”, the “cellular vitamin C level” value was 6±1.4 nmol/mg protein.
